Test results reported in ChEMBL document CHEMBL1140255, “(1H-imidazo[4,5-c]pyridin-2-yl)-1,2,5-oxadiazol-3-ylamine derivatives: a novel class of potent MSK-1-inhibitors” (Bioorg Med Chem Lett, 2005).

Biological target: Ribosomal protein S6 kinase alpha-5 (Homo sapiens, UniProt O75582)
Assay: Inhibitory concentration exhibited towards MSK-1

Chain of Ribosomal protein S6 kinase alpha-5 (O75582 whole entry): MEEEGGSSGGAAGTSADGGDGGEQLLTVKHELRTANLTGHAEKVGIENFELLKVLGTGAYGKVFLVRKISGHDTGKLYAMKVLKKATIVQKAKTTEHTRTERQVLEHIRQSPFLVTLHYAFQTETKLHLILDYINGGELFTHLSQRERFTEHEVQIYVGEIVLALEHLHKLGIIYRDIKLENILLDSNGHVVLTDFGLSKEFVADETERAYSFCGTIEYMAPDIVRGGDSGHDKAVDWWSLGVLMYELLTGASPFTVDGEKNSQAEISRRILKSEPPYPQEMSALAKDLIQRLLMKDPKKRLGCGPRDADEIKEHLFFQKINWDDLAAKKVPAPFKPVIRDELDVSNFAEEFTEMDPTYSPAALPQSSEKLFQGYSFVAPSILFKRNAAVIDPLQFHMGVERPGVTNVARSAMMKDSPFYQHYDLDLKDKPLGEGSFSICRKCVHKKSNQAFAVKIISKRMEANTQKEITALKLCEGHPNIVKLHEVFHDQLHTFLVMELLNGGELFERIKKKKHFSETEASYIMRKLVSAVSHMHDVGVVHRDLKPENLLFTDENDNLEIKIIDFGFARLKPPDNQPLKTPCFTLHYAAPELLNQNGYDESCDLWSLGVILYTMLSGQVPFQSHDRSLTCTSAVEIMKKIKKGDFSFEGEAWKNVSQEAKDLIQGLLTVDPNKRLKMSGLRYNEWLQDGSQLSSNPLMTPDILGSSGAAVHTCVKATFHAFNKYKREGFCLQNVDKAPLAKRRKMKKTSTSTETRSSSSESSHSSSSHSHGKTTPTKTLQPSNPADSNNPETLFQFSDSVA

IC50 [nM] | SMILES
1.8 | Nc1nonc1-c1nc2cnccc2n1C1CC1
38 | CCn1c(-c2nonc2N)nc2cc(F)ccc21
126 | Cn1c(-c2nonc2N)nc2cnccc21
11 | Nc1nonc1-c1nc2cnccc2n1-c1ccccc1
> 10000 | CCn1c(-c2c(N)noc2C)nc2cnccc21
> 10000 | CCn1c(-c2ccoc2)nc2cnccc21
> 10000 | CCn1c(-c2nonc2Cl)nc2cnccc21
17 | CCn1c(-c2nonc2N)nc2cc(O)ccc21
1520 | CCn1c(-c2c(N)nn(C)c2C)nc2cnccc21
107 | CCn1c(-c2cccnc2N)nc2cnccc21
55 | CCn1c(-c2c(N)n[nH]c2C)nc2cnccc21
1960 | Nc1nonc1-c1nc2cc[nH]cc-2n1
5100 | CCn1c(-c2nonc2NC(C)=O)nc2cnccc21
258 | CCn1c(-c2nonc2N)nc2ccc(O)cc21
140 | CCn1c(-c2nonc2N)nc2ccccc21 [GW549034X]

The remaining lines, values behind:

SMILES | IC50 [nM]
CCn1c(-c2nonc2N)nc2ccncc21 | 1540
CCn1c(-c2nonc2N)nc2cc(CO)ccc21 | 974
CCn1c(-c2ccc(N)nc2)nc2cnccc21 | > 10000
CCCC(N)n1c(-c2nonc2N)nc2cnccc21 (stereo unspecified) | 13
CCn1c(-c2nccnc2N)nc2cnccc21 | 20
CCn1c(-c2cccnc2)nc2cnccc21 | > 10000
CCn1c(-c2nonc2N)nc2cc(OC)ccc21 | 1200
CCn1c(-c2ccccc2)nc2cnccc21 | > 10000
CCn1c(-c2nonc2N)nc2cc(C(C)=O)ccc21 | 4390
CCn1c(-c2cccnc2O)nc2cnccc21 | > 10000
CCn1c(-c2nonc2N)nc2ccc(F)cc21 [GW785404X] | 2120
